Patent publication US4672068A, “Antihypertensive 1,4-dihydropyridines having a conjugated ester” (Fujirebio Kabushiki Kaisha, priority 1984, dated 1987)

What was measured:
[1] = test system: Male SHR, systolic blood pressure; experiment: Systolic blood pressure by tail cuff method, oral administration (3 mg/kg), Table 4; assay type: in vivo, rat; settings: conscious SHR; for Duration: '24<' means greater than 24
Description: Systolic blood pressure was measured by the tail cuff method with electrophygmomanometer (PE-300, made by Narco Co.). Each derivative (3 mg/kg) was administered orally, suspended in 5% gum arabic solution.

[2] = test system: Male spontaneously hypertensive rats (SHR), arterial blood pressure; experiment: Depressor response after intravenous administration (30 μg/kg), Table 1; assay type: in vivo, rat; settings: for Duration: '90<' means greater than 90
In short: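 Conscious restrained SHR with mean arterial pressure above 140 mmHg; pressure recorded via abdominal aortic catheter and transducer. Dosing was at least 2 h after surgery, through a caudal vein catheter. Compound was given in 1.5% PVP/ethanol diluted with 0.9% saline.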

[3] = test system: Male spontaneously hypertensive rats (SHR), arterial blood pressure; experiment: Depressor response after intraduodenal administration (1 mg/kg), Table 2; assay type: in vivo, rat; settings: for Half-life: '120<' means greater than 120
Description: Arterial blood pressure was measured through the catherized artery with a pressure transducer (MPU-0.5, manufactured by Nihon Kohden Kabushiki Kaisha). The catheter was inserted into the abdominal aorta via the median coccygcal artery of SHR under light ether anesthesia. The recordings were made on a rectigraph (manufactured by Sanei Sokki Kabushiki Kaisha). The 1,4-dihydropyridine derivatives prepared in the foregoing examples were administered with catheter which was inserted previously into the caudal vein or duodenum at least two hours after the operation. SHR were restrained with wire mesh cage immediately after the operation.

[4] = in vivo; settings: mouse, iv, male ddy mice, caudal vein injection, '60<' means greater than 60
Description: Acute toxicity of several derivatives was tested with male ddy mice weighed 15-30 grams by the up and down method. Each derivative was dissolved in 1.5% PVP/ethanol solution, and diluted with a saline solution. Such derivative solution was injected into the caudal vein, and the acute toxicity was determined.

[5] = test system: rat (SHR), blood pressure and heart rate; experiment: Depressor response of trans- and cis-forms, dose-response intravenous, Tables 5 and 6; assay type: in vivo; settings: for ED40: Rattus norvegicus, intravenous, from regression line
Description: Male spontaneously hypertensive rats (SHR) which had mean arterial blood pressures higher than 140 mmHg were used for the experiments. Arterial blood pressure was measured through the catherized artery with a pressure transducer (MPU-0.5, manufactured by Nihon Kohden Kabushiki Kaisha). The catheter was inserted into the abdominal aorta via the median coccygcal artery of SHR under light ether anesthesia. The recordings were made on a rectigraph (manufactured by Sanei Sokki Kabushiki Kaisha). The 1,4-dihydropyridine derivatives prepared in the foregoing examples were administered with catheter which was inserted previously into the caudal vein or duodenum at least two hours after the operation. SHR were restrained with wire mesh cage immediately after the operation. […]

Row | SMILES | ΔBP After 1 hour [1] [mmHg] | ΔBP After 3 hours [1] [mmHg] | Duration [1] [h] | The time to reach the lowest BP [2] [min] | ΔBP (Maximum depressor response) [2] [mmHg] | The time to reach the lowest BP [3] [min] | ΔBP (Maximum depressor response) [3] [mmHg] | Half-life [3] [h] | Duration [2] [min] | further results
1 | CC1=C(C(=O)OCC=Cc2ccccc2)C(c2cccc([N+](=O)[O-])c2)C(C(=O)OCCOc2ccccc2)=C(C)N1 (centres unmarked) [Example 44, Cinnamyl 2-phenoxyethyl 4-(3-nitrophenyl)-2,6-dimethyl-1,4-dihydropyridine-3,5-dicarboxylate] | -30 | -70 | 7 to 24 | 7 | 43 | – | – | – | – | halflife (number in parentheses in Duration column) [2]: 0.75 h
2 | COC(=O)C1=C(C)NC(C)=C(C(=O)OC(C=Cc2ccccc2)c2ccccc2)C1c1cccc([N+](=O)[O-])c1 (centres unmarked) [Example 27, 1,3-diphenyl-2-propenyl methyl 4-(3-nitrophenyl)-2,6-dimethyl-1,4-dihydropyridine-3,5-dicarboxylate] | -130 | -113 | – | 56 | 45 | 170 | 82 | > 4 | > 240 | –
3 | CC1=C(C(=O)OCC=CC=Cc2ccccc2)C(c2cccc([N+](=O)[O-])c2)C(C(=O)OC(C)C)=C(C)N1 (centres unmarked) [Example 61, Isopropyl 5-phenyl-2,4-pentadienyl 4-(3-nitrophenyl)-2,6-dimethyl-1,4-dihydropyridine-3,5-dicarboxylate] | -40 | -100 | – | 7.0 | 85 | – | – | – | > 90 | –
4 | COC(=O)C1=C(C)NC(C)=C(C(=O)OCC=Cc2ccco2)C1c1cccc([N+](=O)[O-])c1 (centres unmarked) [Example 7, 3-(2furyl)-2-propenyl methyl 4-(3-nitrophenyl)-2,6-dimethyl-1,4-dihydropyridine-3,5-dicarboxylate] | – | – | – | – | – | 105 | 20 | > 2 | – | LD50 [4]: > 60 mg/kg
5 | COC(=O)C1=C(C)NC(C)=C(C(=O)OC(C)C=Cc2ccco2)C1c1cccc([N+](=O)[O-])c1 (centres unmarked) [Example 33, 1-methyl-3-furyl-3-propenyl methyl 4-(3-nitrophenyl)-2,6-dimethyl-1,4-dihydropyridine-3,5-dicarboxylate] | – | – | – | 10.0 | 85 | 22 | 100 | > 4 | > 240 | –
6 | COC(=O)C1=C(C)NC(C)=C(C(=O)OC/C=C/c2ccccc2)C1c1cccc([N+](=O)[O-])c1 (stereo not drawn) [Example 1, cinnamyl methyl 4-(3-nitrophenyl)-2,6-dimethyl-1,4-dihydropyridine-3,5-dicarboxylate (trans)] | -75 | -80.5 | 7 to 24 | 1.7 | 44 | 43.7 | 35.0 | > 2 | > 90 | Depressure Response MaxΔBP ([5]; 10 μg/kg i.v.): 35.0 mmHg; Depressure Response Peak ([5]; 10 μg/kg i.v.): 2.0 min; MaxΔHR (Heart rates) ([5]; 10 μg/kg i.v.): 28.3 beats/min; T 1/2 (Halflife) ([5]; 10 μg/kg i.v.): 0.543 h; Depressure Response MaxΔBP ([5]; 30 μg/kg i.v.): 52.2 mmHg; Depressure Response Peak ([5]; 30 μg/kg i.v.): 1.8 min; MaxΔHR (Heart rates) ([5]; 30 μg/kg i.v.): 65.3 beats/min; T 1/2 (Halflife) ([5]; 30 μg/kg i.v.): 0.445 h; Depressure Response MaxΔBP ([5]; 100 μg/kg i.v.): 69.0 mmHg; Depressure Response Peak ([5]; 100 μg/kg i.v.): 2.0 min; MaxΔHR (Heart rates) ([5]; 100 μg/kg i.v.): 32.5 beats/min; T 1/2 (Halflife) ([5]; 100 μg/kg i.v.): 0.808 h; ED40 [5]: 0.0156 mg/kg
7 | COC(=O)C1=C(C)NC(C)=C(C(=O)OC/C=C\c2ccccc2)C1c1cccc([N+](=O)[O-])c1 (stereo not drawn) [Example 56, Methyl (Z)-3-phenyl-2-propenyl 4-(3-nitrophenyl)-2,6-dimethyl-1,4-dihydropyridine-3,5-dicarboxylate (cis)] | – | – | – | 1.3 | 40.3 | – | – | – | – | Depressure Response MaxΔBP ([5]; 10 μg/kg i.v.): 16.0 mmHg; Depressure Response Peak ([5]; 10 μg/kg i.v.): 1.2 min; MaxΔHR (Heart rates) ([5]; 10 μg/kg i.v.): 30.0 beats/min; T 1/2 (Halflife) ([5]; 10 μg/kg i.v.): 0.105 h; Depressure Response MaxΔBP ([5]; 30 μg/kg i.v.): 40.3 mmHg; Depressure Response Peak ([5]; 30 μg/kg i.v.): 1.3 min; MaxΔHR (Heart rates) ([5]; 30 μg/kg i.v.): 80.0 beats/min; T 1/2 (Halflife) ([5]; 30 μg/kg i.v.): 0.198 h; Depressure Response MaxΔBP ([5]; 100 μg/kg i.v.): 67.5 mmHg; Depressure Response Peak ([5]; 100 μg/kg i.v.): 1.8 min; MaxΔHR (Heart rates) ([5]; 100 μg/kg i.v.): 87.5 beats/min; T 1/2 (Halflife) ([5]; 100 μg/kg i.v.): 0.533 h; ED40 [5]: 0.0299 mg/kg
8 | COC(=O)C1=C(C)NC(C)=C(C(=O)OCCC=Cc2cccs2)C1c1cccc([N+](=O)[O-])c1 (stereo not drawn) [Example 11, 4-α-thienyl-3-butenyl methyl 4-(3-nitrophenyl)-2,6-dimethyl-1,4-dihydropyridine-3,5-dicarboxylate] | – | – | – | 1.6 | 60 | 200 | 25 | 4 | 100 | –
9 | CCOC(=O)C1=C(C)NC(C)=C(C(=O)OCC=Cc2ccccc2)C1c1cccc([N+](=O)[O-])c1 (centres unmarked) [Example 15, Cinnamyl ethyl 4-(3-nitrophenyl)-2,6-dimethyl-1,4-dihydropyridine-3,5-dicarboxylate] | – | -35 | 7 to 24 | – | – | 75 | 45 | > 2 | – | –
10 | COC(=O)C1=C(C)NC(C)=C(C(=O)OC)C1c1ccccc1[N+](=O)[O-] [A, 4-(o-nitrophenyl)-2,6-dimethyl-1,4-dihydropyridine-3,5-dicarboxylic acid dimethyl ester, reference compound] | -45 | -22.0 | < 7 | 0.9 | 18.7 | 6.0 | 48.3 | – | 35.6 ± 6.5 | –
11 | COC(=O)C1=C(C)NC(C)=C(C(=O)OCC=CC=Cc2ccccc2)C1c1cccc([N+](=O)[O-])c1 (centres unmarked) [Example 16, 5-phenyl-2,4-pentadienyl methyl 4-(3-nitrophenyl)-2,6-dimethyl-1,4-dihydropyridine-3,5-dicarboxylate] | -55 | -60 | > 24 | – | – | 50 | 45 | > 2 | – | –
12 | COC(=O)C1=C(C)NC(C)=C(C(=O)OC(C)C=Cc2ccccc2)C1c1cccc([N+](=O)[O-])c1 (centres unmarked) [Example 30, 1-methyl-3-phenyl-2-propenyl methyl 4-(3-nitrophenyl)-2,6-dimethyl-1,4-dihydropyridine-3,5-dicarboxylate] | – | – | – | 5.0 | 75 | 65 | 89 | > 4 | > 120 | –
13 | COC(=O)C1=C(C)NC(C)=C(C(=O)OCCC=Cc2ccc3ccccc3c2)C1c1cccc([N+](=O)[O-])c1 (stereo not drawn) [Example 12, 4-β-naphthyl-3-butenyl methyl 4-(3-nitrophenyl)-2,6-dimethyl-1,4-dihydropyridine-3,5-dicarboxylate] | -30 | -55 | > 24 | – | – | – | – | – | – | –
14 | COC(=O)C1=C(C)NC(C)=C(C(=O)OCCC=Cc2ccccc2)C1c1cccc([N+](=O)[O-])c1 (centres unmarked) [Example 4, 4-phenyl-3-butenyl methyl 4-(3-nitrophenyl)-2,6-dimethyl-1,4-dihydropyridine-3,5-dicarboxylate] | – | – | – | 1.3 | 63.3 | 105 | 20 | > 2.83 | > 90 | –
15 | COC(=O)C1=C(C)NC(C)=C(C(=O)OCCCC=Cc2ccccc2)C1c1cccc([N+](=O)[O-])c1 (centres unmarked) [Example 50, Methyl 5-phenyl-4-pentenyl 4-(3-nitrophenyl)-2,6-dimethyl-1,4-dihydropyridine-3,5-dicarboxylate] | -75 | – | – | 2 | 64 | – | – | – | > 90 | –
